{"source": "patent US11058661B2", "about": "“Compositions and methods for lowering triglycerides in a subject on concomitant statin therapy and having hsCRP levels of at least about 2 mg/L” (priority 2018, dated 2021)", "system": "subjects with Age-Associated Memory Impairment (safety population)", "experiment": "AAMI pilot study: safety and tolerability", "assay_type": "in vivo, human", "method": "All randomized subjects that received at least 1 dose of study medication were included in the Safety Population.\nSafety evaluations were based on the safety population. Safety and tolerability were assessed in terms of AEs, vital signs, 12-lead ECG, clinical laboratory data, medical history, and study drug compliance. Safety and tolerability data were presented by treatment group.", "data": [{"smiles": "CC/C=C\\C/C=C\\C/C=C\\C/C=C\\C/C=C\\CCCC(=O)OCC", "note": "[Icosapent Ethyl, ethyl eicosapentaenoate]", "values": [{"measurement": "subjects with nausea Probably Related to the study drug", "setting": "1 g", "result": "One"}, {"measurement": "subjects with nausea Possibly Related to the study drug", "setting": "1 g cohort", "result": "two"}, {"measurement": "subjects with nausea Possibly Related to the study drug", "setting": "2 g cohort", "result": "one"}, {"measurement": "subjects discontinued due to TEAEs", "setting": "2 g group", "result": 2, "unit": "subjects"}, {"measurement": "SAE reported", "setting": "2 g group, judged unrelated to study drug", "result": "One"}, {"measurement": "subjects with diarrhea Probably Related to the study drug", "setting": "4 g", "result": "Another subject"}, {"measurement": "subjects with nausea Possibly Related to the study drug", "setting": "4 g cohort", "result": "two"}, {"measurement": "TEAEs reported", "setting": "all ethyl-EPA treatment groups, 6 weeks", "result": 105, "unit": "events"}, {"measurement": "TEAEs Definitely Related to the study drug", "setting": "all groups", "result": "No TEAEs"}, {"measurement": "deaths during the study", "setting": "all groups", "result": "no deaths"}]}]}
